Where two headings read alike, the source gives them in different places.
System: BT474 breast cancer cells
Assay: BT474 Four (4) Day Cell Viability Assay
Type: cell-based
Conditions: BT474, 4 days; for viability at 2.5 µM / viability at 5 µM: Homo sapiens, BT-474, 96 h, read-out: cellular viability; for viability at 2.5 µM: 32661 2.5 μM; for viability at 5 µM: 32661 5 μM
Description: BT474 breast cancer cells that are Estrogen Receptor Positive and HER2+ were grown in 5% cFBS. 5,000 cells were seeded into each well of a 96-well plate and treated with escalating doses of lapatinib, fulvestrant, and 32661.

[1] = fulvestrant 0.0 nM, lapatinib 0.0 nM
[2] = fulvestrant 0.0 nM, lapatinib 6.9 nM
[3] = fulvestrant 0.0 nM, lapatinib 20.6 nM
[4] = fulvestrant 0.0 nM, lapatinib 61.7 nM
[5] = fulvestrant 0.0 nM, lapatinib 185.2 nM
[6] = fulvestrant 0.0 nM, lapatinib 555.6 nM
[7] = fulvestrant 0.0 nM, lapatinib 1666.7 nM
[8] = fulvestrant 0.0 nM, lapatinib 3333.0 nM
[9] = fulvestrant 6.9 nM, lapatinib 0.0 nM
[10] = fulvestrant 6.9 nM, lapatinib 6.9 nM
[11] = fulvestrant 6.9 nM, lapatinib 20.6 nM
[12] = fulvestrant 6.9 nM, lapatinib 61.7 nM
[13] = fulvestrant 6.9 nM, lapatinib 185.2 nM
[14] = fulvestrant 6.9 nM, lapatinib 555.6 nM
[15] = fulvestrant 6.9 nM, lapatinib 1666.7 nM
[16] = fulvestrant 6.9 nM, lapatinib 3333.0 nM
[17] = fulvestrant 20.6 nM, lapatinib 0.0 nM
[18] = fulvestrant 20.6 nM, lapatinib 6.9 nM
[19] = fulvestrant 20.6 nM, lapatinib 20.6 nM
[20] = fulvestrant 20.6 nM, lapatinib 61.7 nM
[21] = fulvestrant 20.6 nM, lapatinib 185.2 nM
[22] = fulvestrant 20.6 nM, lapatinib 555.6 nM
[23] = fulvestrant 20.6 nM, lapatinib 1666.7 nM
[24] = fulvestrant 20.6 nM, lapatinib 3333.0 nM
[25] = fulvestrant 61.7 nM, lapatinib 0.0 nM
[26] = fulvestrant 61.7 nM, lapatinib 6.9 nM
[27] = fulvestrant 61.7 nM, lapatinib 20.6 nM
[28] = fulvestrant 61.7 nM, lapatinib 61.7 nM
[29] = fulvestrant 61.7 nM, lapatinib 185.2 nM
[30] = fulvestrant 61.7 nM, lapatinib 555.6 nM
[31] = fulvestrant 61.7 nM, lapatinib 1666.7 nM
[32] = fulvestrant 61.7 nM, lapatinib 3333.0 nM
[33] = fulvestrant 185.2 nM, lapatinib 0.0 nM
[34] = fulvestrant 185.2 nM, lapatinib 6.9 nM
[35] = fulvestrant 185.2 nM, lapatinib 20.6 nM
[36] = fulvestrant 185.2 nM, lapatinib 61.7 nM
[37] = fulvestrant 185.2 nM, lapatinib 185.2 nM
[38] = fulvestrant 185.2 nM, lapatinib 555.6 nM
[39] = fulvestrant 185.2 nM, lapatinib 1666.7 nM
[40] = fulvestrant 185.2 nM, lapatinib 3333.0 nM
[41] = fulvestrant 555.6 nM, lapatinib 0.0 nM
[42] = fulvestrant 555.6 nM, lapatinib 6.9 nM
[43] = fulvestrant 555.6 nM, lapatinib 20.6 nM
[44] = fulvestrant 555.6 nM, lapatinib 61.7 nM
[45] = fulvestrant 555.6 nM, lapatinib 185.2 nM
[46] = fulvestrant 555.6 nM, lapatinib 555.6 nM
[47] = fulvestrant 555.6 nM, lapatinib 1666.7 nM
[48] = fulvestrant 555.6 nM, lapatinib 3333.0 nM
[49] = fulvestrant 1666.7 nM, lapatinib 0.0 nM
[50] = fulvestrant 1666.7 nM, lapatinib 6.9 nM
[51] = fulvestrant 1666.7 nM, lapatinib 20.6 nM
[52] = fulvestrant 1666.7 nM, lapatinib 61.7 nM
[53] = fulvestrant 1666.7 nM, lapatinib 185.2 nM
[54] = fulvestrant 1666.7 nM, lapatinib 555.6 nM
[55] = fulvestrant 1666.7 nM, lapatinib 1666.7 nM
[56] = fulvestrant 1666.7 nM, lapatinib 3333.0 nM
[57] = fulvestrant 3333.0 nM, lapatinib 0.0 nM
[58] = fulvestrant 3333.0 nM, lapatinib 6.9 nM
[59] = fulvestrant 3333.0 nM, lapatinib 20.6 nM
[60] = fulvestrant 3333.0 nM, lapatinib 61.7 nM
[61] = fulvestrant 3333.0 nM, lapatinib 185.2 nM
[62] = fulvestrant 3333.0 nM, lapatinib 555.6 nM
[63] = fulvestrant 3333.0 nM, lapatinib 1666.7 nM

FC(F)(F)c1ccc2c(SCCCCCCn3cnc(CN4CCOCC4)c3)ccnc2c1 [Compound 0032661, 4-[[1-[6-[[7-(trifluoromethyl)-4-quinolyl]sulfanyl]hexyl]imidazol-4-yl]methyl]morpholine]
cellular viability, addition of 32661 to lapatinib and fulvestrant: enhanced the reduction of cellular viability
cellular viability, addition of 32661 to lapatinib and fulvestrant (listed as 32661): further enhanced the reduction of cellular viability
viability at 2.5 µM [1]: 96%
viability at 2.5 µM [2]: 85%
viability at 2.5 µM [3]: 80%
viability at 2.5 µM [4]: 81%
viability at 2.5 µM [5]: 83%
viability at 2.5 µM [6]: 73%
viability at 2.5 µM [7]: 60%
viability at 2.5 µM [8]: 23%
viability at 2.5 µM [9]: 90%
viability at 2.5 µM [10]: 83%
viability at 2.5 µM [11]: 80%
viability at 2.5 µM [12]: 80%
viability at 2.5 µM [13]: 78%
viability at 2.5 µM [14]: 66%
viability at 2.5 µM [15]: 55%
viability at 2.5 µM [16]: 25%
viability at 2.5 µM [17]: 87%
viability at 2.5 µM [18]: 77%
viability at 2.5 µM [19]: 79%
viability at 2.5 µM [20]: 79%
viability at 2.5 µM [21]: 76%
viability at 2.5 µM [22]: 63%
viability at 2.5 µM [23]: 54%
viability at 2.5 µM [24]: 25%
viability at 2.5 µM [25]: 87%
viability at 2.5 µM [26]: 78%
viability at 2.5 µM [27]: 78%
viability at 2.5 µM [28]: 78%
viability at 2.5 µM [29]: 73%
viability at 2.5 µM [30]: 63%
viability at 2.5 µM [31]: 53%
viability at 2.5 µM [32]: 21%
viability at 2.5 µM [33]: 84%
viability at 2.5 µM [34]: 81%
viability at 2.5 µM [35]: 82%
viability at 2.5 µM [36]: 77%
viability at 2.5 µM [37]: 73%
viability at 2.5 µM [38]: 63%
viability at 2.5 µM [39]: 54%
viability at 2.5 µM [40]: 18%
viability at 2.5 µM [41]: 83%
viability at 2.5 µM [42]: 78%
viability at 2.5 µM [43]: 80%
viability at 2.5 µM [44]: 79%
viability at 2.5 µM [45]: 75%
viability at 2.5 µM [46]: 62%
viability at 2.5 µM [47]: 48%
viability at 2.5 µM [48]: 14%
viability at 2.5 µM [49]: 75%
viability at 2.5 µM [50]: 72%
viability at 2.5 µM [51]: 73%
viability at 2.5 µM [52]: 72%
viability at 2.5 µM [53]: 59%
viability at 2.5 µM [54]: 47%
viability at 2.5 µM [55]: 24%
viability at 2.5 µM [56]: 7%
viability at 2.5 µM [57]: 52%
viability at 2.5 µM [58]: 42%
viability at 2.5 µM [59]: 34%
viability at 2.5 µM [60]: 30%
viability at 2.5 µM [61]: 26%
viability at 2.5 µM [62]: 22%
viability at 2.5 µM [63]: 16%
viability at 2.5 µM (fulvestrant 3333.0 nM, lapatinib 3333.0 nM): 1%
viability at 5 µM [1]: 95%
viability at 5 µM [2]: 87%
viability at 5 µM [3]: 84%
viability at 5 µM [4]: 87%
viability at 5 µM [5]: 79%
viability at 5 µM [6]: 67%
viability at 5 µM [7]: 51%
viability at 5 µM [8]: 16%
viability at 5 µM [9]: 93%
viability at 5 µM [10]: 83%
viability at 5 µM [11]: 82%
viability at 5 µM [12]: 82%
viability at 5 µM [13]: 77%
viability at 5 µM [14]: 65%
viability at 5 µM [15]: 42%
viability at 5 µM [16]: 14%
viability at 5 µM [17]: 91%
viability at 5 µM [18]: 80%
viability at 5 µM [19]: 79%
viability at 5 µM [20]: 78%
viability at 5 µM [21]: 71%
viability at 5 µM [22]: 60%
viability at 5 µM [23]: 39%
viability at 5 µM [24]: 11%
viability at 5 µM [25]: 90%
viability at 5 µM [26]: 80%
viability at 5 µM [27]: 78%
viability at 5 µM [28]: 76%
viability at 5 µM [29]: 67%
viability at 5 µM [30]: 60%
viability at 5 µM [31]: 39%
viability at 5 µM [32]: 11%
viability at 5 µM [33]: 90%
viability at 5 µM [34]: 78%
viability at 5 µM [35]: 78%
viability at 5 µM [36]: 76%
viability at 5 µM [37]: 67%
viability at 5 µM [38]: 56%
viability at 5 µM [39]: 35%
viability at 5 µM [40]: 10%
viability at 5 µM [41]: 86%
viability at 5 µM [42]: 79%
viability at 5 µM [43]: 74%
viability at 5 µM [44]: 72%
viability at 5 µM [45]: 56%
viability at 5 µM [46]: 48%
viability at 5 µM [47]: 29%
viability at 5 µM [48]: 6%
viability at 5 µM [49]: 81%
viability at 5 µM [50]: 60%
viability at 5 µM [51]: 60%
viability at 5 µM [52]: 48%
viability at 5 µM [53]: 36%
viability at 5 µM [54]: 29%
viability at 5 µM [55]: 18%
viability at 5 µM [56]: 1%
viability at 5 µM [57]: 56%
viability at 5 µM [58]: 35%
viability at 5 µM [59]: 29%
viability at 5 µM [60]: 21%
viability at 5 µM [61]: 22%
viability at 5 µM [62]: 19%
viability at 5 µM [63]: 11%
